Measured values reported in publication PMC4554294 (Biochemistry and Biophysics Reports, 2015).

How the values were obtained:
Test in all cases: saturation transfer difference
Type in all cases: binding
[1] = target: T1, sucrose phosphorylase (LmSPase) (Leuconostoc mesenteroides, UniProt Q59495, F52A/D196A)
T1 sequence (Q59495 1-490 F52A/D196A): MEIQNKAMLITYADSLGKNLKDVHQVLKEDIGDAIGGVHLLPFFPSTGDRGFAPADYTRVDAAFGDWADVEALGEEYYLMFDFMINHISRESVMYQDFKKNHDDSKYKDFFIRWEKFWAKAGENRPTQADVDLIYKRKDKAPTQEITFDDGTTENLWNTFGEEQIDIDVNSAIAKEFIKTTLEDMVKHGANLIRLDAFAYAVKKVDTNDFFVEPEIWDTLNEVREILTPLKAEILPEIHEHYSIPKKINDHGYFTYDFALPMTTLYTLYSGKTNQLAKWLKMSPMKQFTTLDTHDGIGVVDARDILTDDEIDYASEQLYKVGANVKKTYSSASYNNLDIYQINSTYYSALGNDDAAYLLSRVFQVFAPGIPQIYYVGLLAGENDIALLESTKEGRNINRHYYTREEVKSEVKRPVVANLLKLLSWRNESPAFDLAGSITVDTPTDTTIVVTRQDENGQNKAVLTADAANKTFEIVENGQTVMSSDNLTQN

[2] = target: T2, sucrose phosphorylase (LmSPase) (Leuconostoc mesenteroides, UniProt Q59495, F52A/D295A)
T2 sequence (Q59495 1-490 F52A/D295A): T1 sequence (Q59495 1-490 F52A/D196A)

[3] = target: T3, sucrose phosphorylase (LmSPase) (Leuconostoc mesenteroides, UniProt Q59495, F52A/E237A)
T3 sequence (Q59495 1-490 F52A/E237A): T1 sequence (Q59495 1-490 F52A/D196A)

[4] = target: T4, sucrose phosphorylase (LmSPase) (Leuconostoc mesenteroides, UniProt Q59495, F52A)
T4 sequence (Q59495 1-490 F52A): T1 sequence (Q59495 1-490 F52A/D196A)

[5] = target: T5, sucrose phosphorylase (LmSPase) (Leuconostoc mesenteroides, UniProt Q59495)
T5 sequence (Q59495 1-490): T1 sequence (Q59495 1-490 F52A/D196A)

SMILES: O=P(O)(O)O[C@H]1O[C@H](CO)[C@@H](O)[C@H](O)[C@H]1O [αGlc 1-P, α-D-glucose 1-phosphate]
- saturation transfer difference (STD) NMR [1]: Incubation of either double mutant with αGlc 1-P gave rise to distinct STD effects in the ligand
- saturation transfer difference (STD) NMR; steady-state kinetics [2]: STD signal intensities were higher on binding of αGlc 1-P to F52A_D295A mutant as compared to wild-type
- saturation transfer difference (STD) NMR [3]: suggesting that binding of αGlc 1-P did take place in each double mutant
- saturation transfer difference (STD) NMR [4]: STD effects in αGlc 1-P were considerably weaker in F52A mutant than in wild-type enzyme
- saturation transfer difference (STD) NMR, 7 μM enzyme, 5.0 mM ligand [5]: Binding of αGlc 1-P to LmSPase resulted in a characteristic pattern of STD effects
